Results as given in EP2394998A1, “3-(5-Amino-6-oxo-1,6-dihydropyridazin-3-yl)-biphenyl derivatives as PDE4 inhibitors” (Almirall, S.A., priority 2010, dated 2011).
Values belong to the compound of their own block, whether it stands above or below them.

Target: recombinant PDE4 enzyme
Experiment: PDE4 assay: [3H] cAMP Scintillation Proximity Assay (SPA) of phosphodiesterase activity
Assay type: biochemical
Conditions: yeast extract of recombinant PDE4 enzyme; 30 nM [3H] cAMP; 1 h at room temperature; pH 7.5
Procedure: Measurement of Phosphodiesterase Activity was done using a [3H] cAMP Scintillation Proximity Assay (SPA) (GE Healthcare). Compounds to be tested were disolved in dimethylsulfoxide (DMSO) at a stock concentration of 1 mM and serial dilutions were prepared in 50% DMSO to determine IC50s.
The reactions were conducted in 96-well plates (Corning, Ref.3604) at room temperature, in 0.1 mL of reaction buffer containing (final concentrations): 50 mM Tris-HCl, pH 7.5, 8.3 mM MgCl2, 1.7 mM EGTA, 30 nM [3H] cAMP (approximately 150000 dpm/well) with or without the inhibitors. The reaction was initiated by adding yeast extract of recombinant PDE4 enzyme.
Plates were shaken for 1 h at room temperature and the incubation was terminated by adding 50 µL (0.5 mg /well) of SPA ytrium silicate beads (RPNQ 0150; GE Healthcare) in the presence of zinc sulfate. Plates were stored overnight in the dark and read on a TRILUX microtiter plate reader (Perkin Elmer).

SMILES: CCn1nc(-c2cccc(-c3ccc(C(=O)O)cc3)c2)cc(Nc2cncc3ccccc23)c1=O [Example 5, 3'-[1-ethyl-5-(isoquinolin-4-ylamino)-6-oxo-1,6-dihydropyridazin-3-yl]biphenyl-4-carboxylic acid]
IC50: 0.445 nM

SMILES: CCn1nc(-c2cccc(-c3cccc(C(=O)NCCN(C)C)c3)c2)cc(Nc2cccc3ncccc23)c1=O [Example 12, N-[2-(dimethylamino)ethyl]-3'-[1-ethyl-6-oxo-5-(quinolin-5-ylamino)-1,6-dihydropyridazin-3-yl]biphenyl-3-carboxamide]
IC50: 0.125 nM

SMILES: CCn1nc(-c2cccc(-c3cccc(C(=O)NCCN4CCCCC4)c3)c2)cc(Nc2cccc3ncccc23)c1=O [Example 16, 3'-[1-ethyl-6-oxo-5-(quinolin-5-ylamino)-1,6-dihydropyridazin-3-yl]-N-(2-piperidin-1-ylethyl)biphenyl-3-carboxamide]
IC50: 0.045 nM

SMILES: CCn1nc(-c2cccc(-c3cccc(C(=O)NCCN4CCOCC4)c3)c2)cc(Nc2cncc3ccccc23)c1=O [Example 17, 3'-[1-ethyl-5-(isoquinolin-4-ylamino)-6-oxo-1,6-dihydropyridazin-3-yl]-N-(2-morpholin-4-ylethyl)biphenyl-3-carboxamide]
IC50: 0.043 nM

SMILES: CCn1nc(-c2cccc(-c3cccc(C(=O)NC4CCC4)c3)c2)cc(Nc2cncc3ccccc23)c1=O [Example 19, N-cyclobutyl-3'-[1-ethyl-5-(isoquinolin-4-ylamino)-6-oxo-1,6-dihydropyridazin-3-yl]biphenyl-3-carboxamide]
IC50: 0.223 nM

SMILES: CCn1nc(-c2cccc(-c3ccc(C(=O)NCCN4CCCCC4)cc3)c2)cc(Nc2cncc3ccccc23)c1=O [Example 22, 3'-[1-ethyl-5-(isoquinolin-4-ylamino)-6-oxo-1,6-dihydropyridazin-3-yl]-N-(2-piperidin-1-ylethyl)biphenyl-4-carboxamide]
IC50: 0.128 nM

SMILES: CCn1nc(-c2cccc(-c3cccc(C(=O)NC4CCC4)c3)c2)cc(Nc2cccc3ncccc23)c1=O [Example 25, N-cyclobutyl-3'-[1-ethyl-6-oxo-5-(quinolin-5-ylamino)-1,6-dihydropyridazin-3-yl]biphenyl-3-carboxamide]
IC50: 0.209 nM

SMILES: CCn1nc(-c2cccc(-c3cccc(C(=O)NC4CCN(C)CC4)c3)c2)cc(Nc2cncc3ccccc23)c1=O [Example 36, 3'-[1-ethyl-5-(isoquinolin-4-ylamino)-6-oxo-1,6-dihydropyridazin-3-yl]-N-(1-methylpiperidin-4-yl)biphenyl-3-carboxamide]
IC50: 0.172 nM

SMILES: CCn1nc(-c2cccc(-c3cccc(CCC(=O)NC4CC4)c3)c2)cc(Nc2cccc3ncccc23)c1=O [Example 38, N-cyclopropyl-3-{3'-[1-ethyl-6-oxo-5-(quinolin-5-ylamino)-1,6-dihydropyridazin-3-yl]biphenyl-3-yl}propanamide]
IC50: 0.101 nM

SMILES: CCn1nc(-c2cccc(-c3cccc(C(=O)NCC(N)=O)c3)c2)cc(Nc2cccc3ncccc23)c1=O [Example 48, N-(2-Amino-2-oxoethyl)-3'-(1-ethyl-6-oxo-5-(quinolin-5-ylamino)-1,6-dihydropyridazin-3-yl)biphenyl-3-carboxamide]
IC50: 0.041 nM

SMILES: CCn1nc(-c2cccc(-c3cccc(C(=O)NCC(=O)O)c3)c2)cc(Nc2cccc3ncccc23)c1=O [Example 49, N-({3'-[1-ethyl-6-oxo-5-(quinolin-5-ylamino)-1,6-dihydropyridazin-3-yl]biphenyl-3-yl}carbonyl)glycine]
IC50: 0.042 nM

SMILES: CCn1nc(-c2cccc(-c3ccc(CC(=O)NCCN4CCCCC4)cc3)c2)cc(Nc2cccc3ncccc23)c1=O [Example 54, 2-{3'-[1-ethyl-6-oxo-5-(quinolin-5-ylamino)-1,6-dihydropyridazin-3-yl]biphenyl-4-yl}-N-(2-piperidin-1-ylethyl)acetamide]
IC50: 0.09 nM

Now those with a lower IC50, led by results:

IC50: 0.016 nM
SMILES: CCn1nc(-c2cccc(-c3cccc(C(N)=O)c3)c2)cc(Nc2cccc3c2ccc[n+]3[O-])c1=O [Example 7, 3'-{1-ethyl-5-[(1-oxidoquinolin-5-yl)amino]-6-oxo-1,6-dihydropyridazin-3-yl}biphenyl-3-carboxamide]

IC50: 0.037 nM
SMILES: CCn1nc(-c2cccc(-c3cccc(C(=O)NC4CC4)c3)c2)cc(Nc2cccc3ncccc23)c1=O [Example 13, N-cyclopropyl-3'-[1-ethyl-6-oxo-5-(quinolin-5-ylamino)-1,6-dihydropyridazin-3-yl]biphenyl-3-carboxamide]

IC50: 0.019 nM
SMILES: CCn1nc(-c2cccc(-c3cccc(C(=O)NCCN4CCOCC4)c3)c2)cc(Nc2cccc3ncccc23)c1=O [Example 15, 3'-[1-ethyl-6-oxo-5-(quinolin-5-ylamino)-1,6-dihydropyridazin-3-yl]-N-(2-morpholin-4-ylethyl)biphenyl-3-carboxamide]

IC50: 0.016 nM
SMILES: CCn1nc(-c2cccc(-c3cccc(C(=O)NC4CCCC4)c3)c2)cc(Nc2cccc3ncccc23)c1=O [Example 27, N-cyclopentyl-3'-[1-ethyl-6-oxo-5-(quinolin-5-ylamino)-1,6-dihydropyridazin-3-yl]biphenyl-3-carboxamide]

IC50: 0.025 nM
SMILES: CCn1nc(-c2cccc(-c3cccc(C(=O)NCCCCCCCN(C)CCO)c3)c2)cc(Nc2cccc3ncccc23)c1=O [Example 29, 3'-[1-ethyl-6-oxo-5-(quinolin-5-ylamino)-1,6-dihydropyridazin-3-yl]-N-{7-[(2-hydroxyethyl)(methyl)amino]heptyl}biphenyl-3-carboxamide]

IC50: 0.023 nM
SMILES: CCn1nc(-c2cccc(-c3cc(C(=O)NCCCN4CCC[C@H]4COC)cc(C(=O)NC4CC4)c3)c2)cc(Nc2cccc3ncccc23)c1=O [Example 62, N-cyclopropyl-3'-[1-ethyl-6-oxo-5-(quinolin-5-ylamino)-1,6-dihydropyridazin-3-yl]-N'-{3-[(2S)-2-(methoxymethyl)pyrrolidin-1-yl]propyl}biphenyl-3,5-dicarboxamide]

IC50: 0.037 nM
SMILES: CCn1nc(-c2cccc(-c3cc(C(=O)NCCN4CCC[C@H]4COC)cc(C(=O)NC4CC4)c3)c2)cc(Nc2cccc3ncccc23)c1=O [Example 63, N-cyclopropyl-3'-[1-ethyl-6-oxo-5-(quinolin-5-ylamino)-1,6-dihydropyridazin-3-yl]-N'-{2-[(2S)-2-(methoxymethyl)pyrrolidin-1-yl]ethyl}biphenyl-3,5-dicarboxamide]
